Results: patent publication US11739083B2, “Disposable sensor chip with reagent including 2-substituted benzothiazolyl-3-substituted phenyl-5-substituted sulfonated phenyl-2H-tetrazolium salt” (TERUMO KABUSHIKI KAISHA, priority 2016, dated 2023)
In brackets after ≈: the same amount, converted by molar mass.

What was measured:
[1] = Maximum absorption wavelength (λmax) of formazan-nickel chelate by spectrophotometer; format: physicochemical; conditions: chelate of formazan and nickel ion, aqueous MOPS, cell length 10 mm, n=1
Method: 10 mM aqueous solution of MOPS was added to each of the formazan compounds so as to obtain a final concentration of […], and thereby 100 μL of a sample was produced. At this time, all of the samples were red-brown in color. Apart from this, a 1 M aqueous solution of nickel ion was produced.
For mixed solutions of various compounds in an aqueous solution of formazan and an aqueous solution of nickel, the spectra were measured with a spectrophotometer (measurement cell length: 10 mm) (n=1). Based on each of the spectra, the maximum absorption wavelength (λmax) (nm) of each of the compounds in formazan was determined. From FIG. 1, it is understood that the maximum absorption wavelength (λmax) of the chelate compound of formazan compound 1 and nickel ion is 630 nm.
The absorbance at the maximum absorption wavelength is denoted as 100%.

[2] = Evaluation of sensitivity (colour development with glucose, GDH-FAD, m-PMS, nickel; gradient versus WST-4); conditions: for Sensitivity, comparison with Comparative Example 5 (ratio) / Sensitivity, comparison with Comparative Example 5 (rating): gradientsample/gradientWST-4; for Sensitivity, comparison with Comparative Example 5 (rating): absorbance at λmax versus glucose concentration, cell length 50 μm
Method: Separately, 100 μL of RO water was added to 7 mg of a glucose dehydrogenase that uses flavin adenine dinucleotide (FAD) as a coenzyme (GDH-FAD) (manufactured by TOYOBO CO., LTD., product No.: GLD-351), the enzyme was dissolved, and thus a GDH solution was produced. Furthermore, 200 μL of RO water was added to 3.5 mg of 1-methoxy-5-methylphenazium methyl sulfate (m-PMS) (manufactured by DOJINDO LABORATORIES), and the compound was dissolved therein. Thus, an s-PMS solution was produced. 1 mL of RO water was added to 129 mg of nickel chloride to dissolve the salt, and thus a nickel solution was produced.
40 μL of the reaction solution was added to 10 μL each of an aqueous glucose solution at a concentration of 125 mg/dL, an aqueous glucose solution at a concentration of 250 mg/dL, and an aqueous glucose solution at a concentration of 1,000 mg/dL, and the mixtures were allowed to develop color. The spectra were measured with a spectrophotometer (measurement cell length: 50 μm) (n=1). […] Thus, the gradient (gradientsample) was determined.
40 μL of the control reaction solution was added to 10 μL each of an aqueous glucose solution at a concentration of 125 mg/dL, an aqueous glucose solution at a concentration of 250 mg/dL, and an aqueous glucose solution at a concentration of 1,000 mg/dL, and the mixtures were allowed to develop color. The spectra were measured with a spectrophotometer (measurement cell length: 50 μm) (n=1). For each of the spectra, the absorbance at 650 nm, which is the measurement wavelength (λmax) of WST-4, was measured, and the glucose concentration in the colored solution and the absorbance were plotted on the horizontal axis and the vertical axis, respectively. Thus, the gradient (gradientWST-4) was determined.
FIG. 2 is a graph showing the relationship between the glucose concentration and the absorbance of produced formazan in relation to the tetrazolium compound 1 and WST-4. […] Meanwhile, the gradient serves as an index for the color development intensity of each compound. Therefore, when the value obtained by dividing the gradientsample by the gradientWST-4 (gradientsample/gradientWST-4) is greater than one-fold, it is implied that the intensity of color development on the longer wavelength side is higher compared to WST-4, which is a well-known indicator reagent.

[3] = Evaluation of water-solubility (visual check for precipitate); format: physicochemical; conditions: RO water and 0.5 M MOPS pH 7.2, 200, 100, 20 mM, stirred 5 minutes; for solubility at 5 min: RO water / 0.5 M MOPS solution (1:1), aqueous buffer, thermodynamic from solid
Method: After the mixture was stirred for 5 minutes, a precipitate was checked by visual inspection. […] After the mixture was stirred for 5 minutes, a precipitate was checked by visual inspection. […] After the mixture was stirred for 5 minutes, a precipitate was checked by visual inspection.

[4] = Evaluation of stability (absorbance increase of measurement solution over 6 hours); conditions: FIG. 3; absorbance increase per hour over 6 hours
Method: To 0.02 mmol of each compound, 75 μL of RO water and 100 μL of a 0.5 M MOPS solution (pH 7.2) were added, and the compound was dissolved therein. The solution was used as a sample.
To 175 μL of this sample, 10 μL of the GDH solution, 5 μL of the m-PMS solution, and 10 μL of the nickel solution, all of which had been produced in the same manner as in the above section (Evaluation of sensitivity), were added, and thereby a measurement solution was produced.
As a control, 85 μL of RO water and 100 μL of a 0.5 M MOPS solution (pH 7.2) were added to 11.6 mg of 2-benzothiazolyl-3-(4-carboxy-2-methoxyphenyl)-5-[4-(2-sulfoethylcarbamoyl)phenyl]-2H-tetrazolium (WST-4), and the compound was dissolved. Thus, a control sample was produced. […] Thus, a control reaction solution was produced.
At the time of production of the measurement solution (0 hour), and after 1 hour, 2 hours, and 6 hours from the production, the spectra of the measurement solutions produced as described above were measured using a spectrophotometer (measurement cell length: 50 μm) (n=1). For each spectrum, the absorbance at the maximum absorption wavelength (λmax) of each compound as determined above was measured. The absorbances measured at the time of production of the measurement solution (0 hour) and after 6 hours from the production were designated as Abs0 h and Abs6 h, respectively. […]

| Maximum absorption wavelength (λmax) [1] | [(Abs6 h−Abs0 h)/6] value [4] | solubility at 5 min [3] [mM] | Compound | gradient (absorbance versus glucose concentration) ([2]; FIG. 2, compound 1 at its λmax with nickel, WST-4 at 650 nm without nickel) | Sensitivity, comparison with Comparative Example 5 (ratio) [2] [times] | Water-solubility [3] | Sensitivity, comparison with Comparative Example 5 (rating) [2] |
| --- | --- | --- | --- | --- | --- | --- | --- |
| 580 nm |  | 100 to 200 (≈ 62.6 to 125 mg/mL) | COc1ccc(S(=O)(=O)O)cc1-[n+]1nc(-c2ccc(S(=O)(=O)O)cc2S(=O)(=O)[O-])nn1-c1nc2ccccc2s1 [Comparative Example 1, reference compound] |  |  |  | Δ (the value of the ratio gradientsample/gradientWST-4 was greater than 1 and less than 1.5) |
| 630 nm |  | > 200 | COc1ccc2nc(-n3nc(-c4ccc(S(=O)(=O)O)cc4S(=O)(=O)O)n[n+]3-c3cc(S(=O)(=O)[O-])c([N+](=O)[O-])cc3OC)sc2c1 [Example 3] |  |  |  | ◯ (the value of the ratio gradientsample/gradientWST-4 was 1.5 or greater and less than 2) |
| 650 nm |  | 20 to 100 | COc1ccc2nc(-n3nc(-c4ccc(S(=O)(=O)[O-])cc4S(=O)(=O)[O-])n[n+]3-c3ccc([N+](=O)[O-])cc3OC)sc2c1.[Na+] [Example 4] |  |  |  | ⊙ (gradientsample/gradientWST-4) was 2 or greater) |
| 650 nm |  | 20 to 100 | COc1ccc2nc(-n3nc(-c4ccc(O)c(S(=O)(=O)[O-])c4)n[n+]3-c3cc(S(=O)(=O)[O-])ccc3OC)sc2c1.[Na+] [Example 6] |  |  |  | ⊙ (gradientsample/gradientWST-4) was 2 or greater) |
| 620 nm |  | > 200 | COc1ccc2nc(-n3nc(-c4cc(S(=O)(=O)[O-])cc(S(=O)(=O)O)c4)n[n+]3-c3cc(S(=O)(=O)O)ccc3OC)sc2c1 [Example 8] |  |  |  | ◯ (the value of the ratio gradientsample/gradientWST-4 was 1.5 or greater and less than 2) |
| 640 nm |  | > 200 | COc1ccc2nc(-n3nc(-c4cc(S(=O)(=O)O)cc(S(=O)(=O)O)c4)n[n+]3-c3ccc(OC)c(S(=O)(=O)[O-])c3)sc2c1 [Example 9] |  |  |  | ◯ (the value of the ratio gradientsample/gradientWST-4 was 1.5 or greater and less than 2) |
| 605 nm |  | > 200 | COc1ccc2nc(-n3nc(-c4cc(S(=O)(=O)[O-])cc(S(=O)(=O)O)c4)n[n+]3-c3cc(C(=O)O)ccc3OC)sc2c1 [Example 11] |  |  |  | ◯ (the value of the ratio gradientsample/gradientWST-4 was 1.5 or greater and less than 2) |
| 610 nm |  | > 200 | COc1ccc(S(=O)(=O)O)cc1-[n+]1nc(-c2ccc(S(=O)(=O)O)cc2S(=O)(=O)[O-])nn1-c1nc2cc3c(cc2s1)OCCO3 [Example 14] |  | 2.4 |  | ⊙ (gradientsample/gradientWST-4) was 2 or greater) |
| 650 nm |  | > 200 | COc1ccc(-[n+]2nc(-c3ccc(S(=O)(=O)O)cc3S(=O)(=O)O)nn2-c2nc3cc4c(cc3s2)OCO4)cc1S(=O)(=O)[O-] [Example 17] |  | 2.4 |  | ⊙ (gradientsample/gradientWST-4) was 2 or greater) |
| 580 nm |  | 100 to 200 (≈ 54.6 to 109 mg/mL) | COc1ccccc1-[n+]1nc(-c2ccc(S(=O)(=O)O)cc2S(=O)(=O)[O-])nn1-c1nc2ccccc2s1 [compound 4, reference compound] |  |  |  | ⊙ (gradientsample/gradientWST-4) was 2 or greater) |

More lines, now with the values behind:

| Compound | Maximum absorption wavelength (λmax) [1] | [(Abs6 h−Abs0 h)/6] value [4] | solubility at 5 min [3] [mM] | gradient (absorbance versus glucose concentration) ([2]; FIG. 2, compound 1 at its λmax with nickel, WST-4 at 650 nm without nickel) | Sensitivity, comparison with Comparative Example 5 (ratio) [2] [times] | Water-solubility [3] | Sensitivity, comparison with Comparative Example 5 (rating) [2] |
| --- | --- | --- | --- | --- | --- | --- | --- |
| 2-benzothiazolyl-3-(4-carboxy-2-methoxyphenyl)-5-[4-(2-sulfoethylcarbamoyl)phenyl]-2H-tetrazolium [Comparative Example 5, reference compound] | No chelation | about 0.01 |  | 0.0026 | 1 | ◯ (a precipitate was seen in the 200 mM aqueous solution, but there was no precipitate in the 100 mM aqueous solution) |  |
| COc1ccc2nc(-n3nc(-c4ccc(S(=O)(=O)O)cc4S(=O)(=O)[O-])n[n+]3-c3cc(S(=O)(=O)O)ccc3OC)sc2c1 [Example 2] | 600 nm |  | > 200 |  |  |  | ⊙ (gradientsample/gradientWST-4) was 2 or greater) |
| COc1ccc2nc(-n3nc(-c4ccc(O)cc4S(=O)(=O)[O-])n[n+]3-c3cc(S(=O)(=O)[O-])ccc3OC)sc2c1.[Na+] [Example 5] | 630 nm |  | 100 to 200 |  |  |  | ◯ (the value of the ratio gradientsample/gradientWST-4 was 1.5 or greater and less than 2) |
| COc1ccc2nc(-n3nc(-c4ccccc4S(=O)(=O)[O-])n[n+]3-c3ccc(S(=O)(=O)[O-])cc3)sc2c1.[Na+] [Example 7] | 645 nm |  | 100 to 200 |  |  |  | ⊙ (gradientsample/gradientWST-4) was 2 or greater) |
| COc1ccc2nc(-n3nc(-c4ccc(S(=O)(=O)O)cc4S(=O)(=O)[O-])n[n+]3-c3ccc(C(=O)O)cc3OC)sc2c1 [Example 10] | 620 nm |  | > 200 |  |  |  | ◯ (the value of the ratio gradientsample/gradientWST-4 was 1.5 or greater and less than 2) |
| COc1ccc2nc(-n3nc(-c4ccc(S(=O)(=O)O)cc4S(=O)(=O)[O-])n[n+]3-c3ccc(OC)c(C(=O)O)c3)sc2c1 [Example 12] | 630 nm |  | > 200 |  | 2.4 |  | ⊙ (gradientsample/gradientWST-4) was 2 or greater) |
| COc1ccc(S(=O)(=O)O)cc1-[n+]1nc(-c2ccc(S(=O)(=O)O)cc2S(=O)(=O)[O-])nn1-c1nc2cc3c(cc2s1)OCO3 [Example 13] | 625 nm |  | > 200 |  | 2.4 |  | ⊙ (gradientsample/gradientWST-4) was 2 or greater) |
| COc1ccc(-[n+]2nc(-c3ccc(S(=O)(=O)O)cc3S(=O)(=O)O)nn2-c2nc3cc4c(cc3s2)OCCO4)cc1S(=O)(=O)[O-] [Example 19] | 640 nm |  | > 200 |  | 2.4 |  | ⊙ (gradientsample/gradientWST-4) was 2 or greater) |
| CCOc1ccc2nc(-n3nc(-c4ccc(S(=O)(=O)O)cc4S(=O)(=O)O)n[n+]3-c3ccc(OC)c(S(=O)(=O)[O-])c3)sc2c1 [Example 20] | 630 nm |  | > 200 |  | 2.4 |  | ⊙ (gradientsample/gradientWST-4) was 2 or greater) |
